The values below come from patent EP0241395A2, “Sweeteners derived from n-phenylguanidinoacetic and n-phenylethananamidinacetic acids, and compositions containing such sweeteners” (UNIVERSITE CLAUDE BERNARD - LYON 1, priority 1986, dated 1987).

This assay relates to groupe de huit goûteurs expérimentés. The experiment in a line: Sweetening power judged by a panel of eight experienced tasters against a sucrose reference solution. The settings on record: weight basis; for Pouvoir édulcorant: Table II, relative to a 2 % sucrose solution; for pouvoir édulcorant, sur une base pondérale: approximate. Format: in vivo. An excerpt:
Le pouvoir édulcorant des composés préparés dans les exemples suivants a été évalué par un groupe de huit goûteurs expérimentés. Pour cela, les composés, en solution aqueuse à des concentrations variables, sont comparés, sur le plan gustatif, à une solution témoin de saccharose à 2 % et dans certains cas à 5 % et 10 %, c'est-à-dire à des concentrations correspondant à celles utilisées lors d'un usage courant. Le pouvoir sucrant des édulcorants de synthèse varie en effet suivant la concentration de la solution de saccharose utilisée comme référence. Le pouvoir édulcorant du composé testé par rapport au saccharose correspond alors au rapport pondéral qui existe entre le composé et le saccharose à égale intensité édulcorante, c'est-à-dire quand les saveurs sucrées de la solution du composé testé et de la solution témoin de saccharose sont considérées, par une majorité de goûteurs, avoir la même intensité édulcorante.

Setting [1] is: by comparison with a 2 % sucrose solution.
Where [2] appears, read: by comparison with a 5 % sucrose solution.
Where [3] appears, read: by comparison with a 10 % sucrose solution.

Regarding `COc1cc(NC(=N[C@@H](C)c2ccccc2)NCC(=O)O)cc(C(F)(F)F)c1` [Exemple 24, acide N-[N-(S)-α-méthylbenzylamino (3-trifluorométhyl-5-méthoxyphénylimino)méthyl]-2-amino-éthanoïque], the Pouvoir édulcorant stood at 7000. Besides, under setting [1], the “pouvoir édulcorant, sur une base pondérale” value was ~7 000 fois celui du saccharose.
Taken in the same sequence, the figures for `Cc1cc(C)cc(N=C(NCC(=O)O)N[C@@H](C)c2ccccc2)c1` [Exemple 25, acide N-[N-(S)-α-méthylbenzylamino (3,5-diméthylphénylimino)méthyl]-2-aminoéthanoïque] were 30000 and ~30 000 fois celui du saccharose.
Regarding `C[C@H](NC(=Nc1cc(Cl)cc(Cl)c1)NCC(=O)O)c1ccccc1` [Exemple 26, acide N-[N-(S)-α-méthylbenzylamino (3,5-dichlorophénylimino)méthyl]-2-aminoéthanoïque], the Pouvoir édulcorant was 120000. Moreover, the “pouvoir édulcorant, sur une base pondérale” value under setting [1] is ~120 000 fois celui du saccharose. In addition, the “pouvoir édulcorant, sur une base pondérale” value under setting [2] is reported as ~90 000 fois celui du saccharose. In addition, the “pouvoir édulcorant, sur une base pondérale” value under setting [3] was ~50 000 fois celui du saccharose.
On to `C[C@H](NC(=Nc1cc(F)cc(F)c1)NCC(=O)O)c1ccccc1` [Exemple 27, acide N-[N-(S)-α-méthylbenzylamine (3,5-difluorophënylimino)méthyl]-2-aminoéthanoïque], for which the Pouvoir édulcorant came out at 15000. The “pouvoir édulcorant, sur une base pondérale” value under setting [1] is recorded as ~15 000 fois celui du saccharose.
The like results for `C[C@H](NC(=Nc1cc(Cl)c(Cl)c(Cl)c1)NCC(=O)O)c1ccccc1` [Exemple 28, acide N-[N-(S)-α-méthylbenzylamino (3,4,5-trichlorophénylimino)méthyl]-2-aminoéthanoïque] were, in that order, 35000 and ~35 000 fois celui du saccharose.
For `O=C(O)CNC(=C[N+](=O)[O-])Nc1cc(Cl)cc(Cl)c1` [Exemple 29, acide N-[2-nitro(3,5-dichlorophénylamino)éthényl]-2-aminoéthanoïque], the “Pouvoir édulcorant” value amounted to 400. Further, the “pouvoir édulcorant, sur une base pondérale” value under setting [1] is listed as roughly 400 fois celui du saccharose.
For the compound `N#CC(C#N)=C(NCC(=O)O)Nc1cc(Cl)cc(Cl)c1` [Exemple 30, acide N-[2,2-dicyano(3,5-dichlorophénylamino)éthényl]-2-aminoéthanoïque], the “Pouvoir édulcorant” value was found to be 30.
Regarding `CC(C)N(C)C(=Nc1ccc(C#N)cc1)NCC(=O)O` [Exemple 32, acide N-[N-méthyl-N-1-méthyléthyl-amino(4-cyanophénylimino)méthyl]-2-aminoéthanoïque], the “Pouvoir édulcorant” value is given as 80. Under setting [1], the “pouvoir édulcorant, sur une base pondérale” value was roughly 80 fois celui du saccharose.
Taken in the same sequence, the figures for `CCN(Cc1ccccc1)C(=Nc1ccc(C#N)cc1)NCC(=O)O` [Exemple 34, acide N-[N-éthyl-N-benzylamino (4-cyanophénylimino)méthyl]-2-aminoéthanoïque] were 3000 and ~3 000 fois celui du saccharose.
The like results for `CCNC(=Nc1ccc(C#N)cc1)NCC(=O)O` [Exemple 35, acide N-[N-éthylamino(4-cyanophénylimino)méthyl]-2-aminoéthanoïque] were, in that order, 350 and roughly 350 fois celui du saccharose.
In the case of `CCCCCCN=C(NCC(=O)O)Nc1ccc(C#N)cc1` [Exemple 36, acide N-[N-hexylamino(4-cyanophénylimino)méthyl]-2-aminoéthanoïque], the Pouvoir édulcorant was 6000. Moreover, under setting [1], the “pouvoir édulcorant, sur une base pondérale” value is ~6 000 fois celui du saccharose. Besides, under setting [2], the “pouvoir édulcorant, sur une base pondérale” value was ~4 300 fois celui du saccharose. The compound also showed a pouvoir édulcorant, sur une base pondérale under setting [3] of roughly 1400 times sucrose.
For `CC(C)CCNC(=Nc1ccc(C#N)cc1)NCC(=O)O` [Exemple 37, acide N-[N-(3-méthylbutyl)amino (4-cyanophénylimino)méthyl)-2-aminoéthanoïque], the “Pouvoir édulcorant” value came to 200. Also, under setting [1], the “pouvoir édulcorant, sur une base pondérale” value is recorded as roughly 200 fois celui du saccharose.
The like results for `CCC(C)(C)NC(=Nc1ccc(C#N)cc1)NCC(=O)O` [Exemple 38, acide N-[N-(1,1-diméthylpropyl)amino(4-cyanophénylimino)méthyl]-2-aminoéthanoïque] were, in that order, 300 and roughly 300 fois celui du saccharose.
Taken in the same sequence, the figures for `CC(C)(C)CC(C)(C)NC(=Nc1ccc(C#N)cc1)NCC(=O)O` [Exemple 39, acide N-[N-(1,1,3,3-tétraméthylbut-yl)amino(4-cyanophénylimino)méthyl]-2-aminoéthanoïque] were 1 200 and ~1 200 fois celui du saccharose.
The like results for `O=C(O)CNC(=Nc1ccccc1)Nc1ccccc1` [Exemple 40, acide N-[N-phénylamino(phénylimino)méthyl]-2-aminoéthanoique] were, in that order, 500 and roughly 500 fois celui du saccharose.
The compound `N#Cc1ccc(N=C(NCC(=O)O)Nc2ccccc2)cc1` [Exemple 41, acide N-[N-phénylamino(4-cyanophénylimino)méthyl]-2-aminoéthanoïque] displayed a Pouvoir édulcorant of 4000. The “pouvoir édulcorant, sur une base pondérale” value under setting [1] was ~4 000 fois celui du saccharose. Besides, the “pouvoir édulcorant, sur une base pondérale” value under setting [2] is listed as ~1 800 fois celui du saccharose. The “pouvoir édulcorant, sur une base pondérale” value under setting [3] is reported as roughly 650 fois celui du saccharose.
With `O=C(O)CNC(=Nc1ccccc1)NC1CCCCC1` [Exemple 42, acide N-[N-cyclohexylamino(phénylimino)méthyl]-2-aminoéthanoïque], the “Pouvoir édulcorant” value was 100. Besides, under setting [1], the “pouvoir édulcorant, sur une base pondérale” value is reported as roughly 100 fois celui du saccharose.
`N#Cc1ccc(N=C(NCC(=O)O)NC2CCCCC2)cc1` [Exemple 43, acide N-[N-cyclohexylamino(4-cyanophénylimino)méthyl]-2-aminoéthanoïque] returned a Pouvoir édulcorant of 12000. Under setting [1], the “pouvoir édulcorant, sur une base pondérale” value was ~12 000 fois celui du saccharose. In addition, the “pouvoir édulcorant, sur une base pondérale” value under setting [2] is recorded as ~10 500 fois celui du saccharose. Also, the “pouvoir édulcorant, sur une base pondérale” value under setting [3] is on record as ~8 500 fois celui du saccharose.
In the case of `O=C(O)CNC(=Nc1cc(Cl)cc(Cl)c1)NC1CCCCCC1` [Exemple 44, acide N-[N-cycloheptylamino (3,5-dichlorophénylimino)méthyl]-2-aminoéthanoïque], the Pouvoir édulcorant was 20000. Also, the “pouvoir édulcorant, sur une base pondérale” value under setting [1] was ~20 000 fois celui du saccharose.
The like results for `N#Cc1ccc(N=C(NCC(=O)O)NC2CCCCCC2)cc1` [Exemple 45, acide N-[N-cycloheptylamino(4-cyanophénylimino)méthyl]-2-aminoéthanoïque] were, in that order, 60000 and ~60 000 fois celui du saccharose.
For `O=C(O)CNC(=Nc1cc(Cl)cc(Cl)c1)NC1CCCCCCC1` [Exemple 46, acide N-[N-cyclooctylamino (3,5-dichlorophénylimino)méthyl]-2-aminoéthanoïque], the Pouvoir édulcorant was found to be 60000. Besides, the “pouvoir édulcorant, sur une base pondérale” value under setting [1] is ~60 000 fois celui du saccharose.
For the compound `N#Cc1ccc(NC(=NC2CCCCCCC2)NCC(=O)O)cc1` [Exemple 47, acide N-[N-cyclooctylamino-(4-cyanophénylimino)méthyl]-2-aminoéthanoïque], the Pouvoir édulcorant came out at 170000. For the same compound, the “pouvoir édulcorant, sur une base pondérale” value under setting [1] was ~170 000 fois celui du saccharose. Moreover, under setting [2], the “pouvoir édulcorant, sur une base pondérale” value is given as ~130 000 fois celui du saccharose. Moreover, under setting [3], the “pouvoir édulcorant, sur une base pondérale” value is recorded as ~100 000 fois celui du saccharose.
Compound `Cc1cc(NC(=NC2CCCCCCC2)NCC(=O)O)ccc1C#N` [Exemple 48, acide N-[N-cyclooctylamino(4-cyano-3-méthylphénylimino)méthyl]-2-aminoéthanoïque] registered a Pouvoir édulcorant of 80000. Further, the “pouvoir édulcorant, sur une base pondérale” value under setting [1] was ~80 000 fois celui du saccharose.
The like results for `N#Cc1ccc(N=C(NCC(=O)O)NC2CCCCCCC2)cc1Cl` [Exemple 49, acide N-[N-cyclooctylamino(3-chloro-4-cyanophénylimino)méthyl]-2-aminoéthanoïque] were, in that order, 100000 and ~100 000 fois celui du saccharose.
The like results for `N#Cc1ccc(N=C(NCC(=O)O)NC2CCCCCCCC2)cc1` [Exemple 50, acide N-[N-cyclononylamino(4-cyanophénylimino)méthyl]-2-aminoéthanoïque] were, in that order, 200000 and ~200 000 fois celui du saccharose.
Taken in the same sequence, the figures for `O=C(O)CNC(=Nc1cc(Cl)cc(Cl)c1)NCc1ccccc1` [Exemple 51, acide N-[N-benzylamino(3,5-dichlorophénylimino)méthyl]-2-aminoéthanoïque] were 80000 and ~80 000 fois celui du saccharose.
Take `N#Cc1ccc(N=C(NCC(=O)O)NCc2ccccc2)cc1` [Exemple 52, acide N-[N-benzylamino(4-cyanophénylimino)méthyl]-2-aminoéthanoïque]: the Pouvoir édulcorant was found to be 30000. Besides, the “pouvoir édulcorant, sur une base pondérale” value under setting [1] was ~30 000 fois celui du saccharose. Further, the “pouvoir édulcorant, sur une base pondérale” value under setting [2] is listed as ~27 000 fois celui du saccharose. In addition, the “pouvoir édulcorant, sur une base pondérale” value under setting [3] is ~22 000 fois celui du saccharose.
